Assay results published in patent US11613522B2, “Herbicidally active 3-phenylisoxazoline-5-carboxamides of tetrahydro- and dihydrofurancarboxamides” (BAYER AKTIENGESELLSCHAFT, priority 2017, dated 2023).

Assays:
Type in all cases: in vivo
[1] = system: Avena fatua; assay: Pre-emergence herbicidal activity against AVEFA; conditions: dosage 80 g/ha, scored visually after about 3 weeks vs untreated controls
Description: (§1) 1. Pre-emergence herbicidal action against harmful plants and crop plant compatibility Seeds of monocotyledonous and dicotyledonous weed plants and crop plants are placed in plastic or wood fiber pots and covered with soil. The compounds of the invention, formulated in the form of wettable powders (WP) or as emulsion concentrates (EC), are then applied onto the surface of the covering soil as aqueous suspension or emulsion with addition of 0.5% additive at a water application rate of 600 l/ha (converted). After the treatment, the pots are placed in a greenhouse and kept under good growth conditions for the trial plants. After about 3 weeks, the effect of the preparations is scored visually in comparison with untreated controls as percentages. For example, 100% activity=the plants have died, 0% activity=like control plants. [table]

[2] = system: Veronica persica; assay: Post-emergence herbicidal activity against VERPE; conditions: dosage 320 g/ha, rated visually after about 3 weeks; for pest or weed control at 320 g/ha: Veronica persica, 504 h
Procedure: (§2) [table] Seeds of monocotyledonous and dicotyledonous weeds and crop plants are placed in sandy loam in plastic or wood-fiber pots, covered with soil and cultivated in a greenhouse under controlled growth conditions. 2 to 3 weeks after sowing, the test plants are treated at the one-leaf stage. The compounds of the invention, formulated in the form of wettable powders (WP) or as emulsion concentrates (EC), are then sprayed onto the green parts of the plants as aqueous suspension or emulsion with addition of 0.5% additive at a water application rate of 600 l/ha (converted). After the test plants had been kept in the greenhouse under optimum growth conditions for about 3 weeks, the activity of the preparations is rated visually in comparison to untreated controls. For example, 100% activity=the plants have died, 0% activity=like control plants.

[3] = system: Alopecurus myosuroides; assay: Post-emergence herbicidal activity against ALOMY; conditions: dosage 320 g/ha, rated visually after about 3 weeks; for pest or weed control at 320 g/ha: Alopecurus myosuroides, 504 h
Procedure: as §2

[4] = system: Stellaria media; assay: Pre-emergence herbicidal activity against STEME; conditions: dosage 80 g/ha, scored visually after about 3 weeks vs untreated controls
Description: as §1

[5] = system: Stellaria media; assay: Post-emergence herbicidal activity against STEME; conditions: dosage 320 g/ha, rated visually after about 3 weeks
Procedure: as §2

[6] = system: Echinochloa crus-galli; assay: Post-emergence herbicidal activity against ECHCG; conditions: dosage 320 g/ha, rated visually after about 3 weeks
Procedure: as §2

[7] = system: Pharbitis purpurea; assay: Post-emergence herbicidal activity against PHBPU; conditions: dosage 320 g/ha, rated visually after about 3 weeks; for pest or weed control at 320 g/ha: Ipomoea purpurea, 504 h
Procedure: as §2

[8] = system: Lolium rigidum; assay: Post-emergence herbicidal activity against LOLRI; conditions: dosage 320 g/ha, rated visually after about 3 weeks
Procedure: as §2

[9] = system: Alopecurus myosuroides; assay: Pre-emergence herbicidal activity against ALOMY; conditions: dosage 80 g/ha, scored visually after about 3 weeks vs untreated controls; for pest or weed control at 80 g/ha: Alopecurus myosuroides, 504 h
Description: as §1

[10] = system: Setaria viridis; assay: Post-emergence herbicidal activity against SETVI; conditions: dosage 320 g/ha, rated visually after about 3 weeks
Procedure: as §2

[11] = system: Avena fatua; assay: Post-emergence herbicidal activity against AVEFA; conditions: dosage 320 g/ha, rated visually after about 3 weeks; for pest or weed control at 320 g/ha: Avena fatua, 504 h
Procedure: as §2

[12] = system: Hordeum murinum; assay: Post-emergence herbicidal activity against HORMU; conditions: dosage 320 g/ha, rated visually after about 3 weeks
Procedure: as §2

[13] = system: Viola tricolor; assay: Post-emergence herbicidal activity against VIOTR; conditions: dosage 320 g/ha, rated visually after about 3 weeks
Procedure: as §2

[14] = system: Polygonum convolvulus; assay: Post-emergence herbicidal activity against POLCO; conditions: dosage 320 g/ha, rated visually after about 3 weeks; for pest or weed control at 320 g/ha: Fallopia convolvulus, 504 h
Procedure: as §2

[15] = system: Veronica persica; assay: Pre-emergence herbicidal activity against VERPE; conditions: Veronica persica, 504 h, dosage 80 g/ha
Description: as §1

[16] = system: Polygonum convolvulus; assay: Pre-emergence herbicidal activity against POLCO; conditions: Fallopia convolvulus, 504 h, dosage 80 g/ha, scored visually after about 3 weeks vs untreated controls
Description: as §1

[17] = system: Amaranthus retroflexus; assay: Post-emergence herbicidal activity against AMARE; conditions: dosage 320 g/ha, rated visually after about 3 weeks
Procedure: as §2

[18] = system: Abutilon theophrasti; assay: Post-emergence herbicidal activity against ABUTH; conditions: dosage 320 g/ha, rated visually after about 3 weeks
Procedure: as §2

Row | Compound | Post-emergence herbicidal activity in % against VERPE [2] [%] | Post-emergence herbicidal activity in % against ALOMY [3] [%] | Post-emergence herbicidal activity in % against STEME [5] [%] | Post-emergence herbicidal activity in % against ECHCG [6] [%] | Post-emergence herbicidal activity in % against PHBPU [7] [%] | Post-emergence herbicidal activity in % against LOLRI [8] [%] | Post-emergence herbicidal activity in % against SETVI [10] [%] | Post-emergence herbicidal activity in % against AVEFA [11] [%] | Post-emergence herbicidal activity in % against HORMU [12] [%] | Post-emergence herbicidal activity in % against VIOTR [13] [%] | Post-emergence herbicidal activity in % against POLCO [14] [%] | pest or weed control at 320 g/ha [2] [%] | pest or weed control at 320 g/ha [3] [%] | pest or weed control at 320 g/ha [7] [%] | pest or weed control at 80 g/ha [9] [%] | pest or weed control at 320 g/ha [11] [%] | pest or weed control at 320 g/ha [14] [%] | further results
1 | C[C@]1(C(=O)N[C@@H]2CO[C@H](C(=O)NCc3ncc(C(F)(F)F)cc3Cl)C2)CC(c2cc(F)cc(F)c2)=NO1 [Example I-27] | 80 | 90 | 90 | 100 | 90 | 90 | 80 | 100 | 100 | 80 | 80 | – | – | – | – | – | – | Pre-emergence herbicidal activity in % against AVEVA (AVEFA) [1]: 80%; Pre-emergence herbicidal activity in % against STEME [4]: 90%; Pre-emergence herbicidal activity in % against ALOMY [9]: 90%
2 | CC1(C(=O)NC2COCC2C(=O)NC2CC2)CC(c2cc(F)cc(F)c2)=NO1 (stereo not drawn) [Example I-08, N-[4-(cyclopropylcarbamoyl)tetrahydrofuran-3-yl]-3-(3,5-difluorophenyl)-5-methyl-4H-isoxazole-5-carboxamide] | – | – | – | – | – | – | – | – | – | – | – | 80 | 90 | 80 | 90 | 80 | 80 | pest or weed control at 80 g/ha [15]: 90%
3 | CC1(C(=O)N[C@@H]2CO[C@H](C(=O)NC3CC3)C2)CC(c2cc(F)cc(F)c2)=NO1 (relative stereo) [Example I-04, N-[cis-5-(cyclopropylcarbamoyl)tetrahydrofuran-3-yl]-3-(3,5-difluorophenyl)-5-methyl-4H-isoxazole-5-carboxamide] | – | – | – | – | – | – | – | – | – | – | – | 80 | 90 | 80 | 80 | 100 | 80 | pest or weed control at 320 g/ha ([5]; Stellaria media, 504 h): 80%; pest or weed control at 320 g/ha ([6]; Echinochloa crus-galli, 504 h): 80%; pest or weed control at 80 g/ha [16]: 90%; pest or weed control at 320 g/ha ([10]; Setaria viridis, 504 h): 90%; pest or weed control at 320 g/ha ([13]; Viola tricolor, 504 h): 80%
4 | C=C[C@]1(C(=O)N[C@@H]2CO[C@H](C(=O)NS(=O)(=O)CCC)C2)CC(c2cc(F)cc(F)c2)=NO1 [Example I-29] | 90 | 90 | 90 | 90 | 90 | 90 | 90 | 90 | 90 | 90 | 90 | – | – | – | – | – | – | Post-emergence herbicidal activity in % against AMARE [17]: 90%; Post-emergence herbicidal activity in % against ABUTH [18]: 90%
